Values belong to the molecule of their own block, whether it stands above or below them.
Columns and labels:
EGFR^L858R = target: T1, EGFR^L858R (Homo sapiens, UniProt P00533, L858R); test: HTRF cellular assay in human cancer cells H3255; assay type: cell-based; settings: read-out: IC50 H3255 EGFR LR
T1 construct: expressing WT EGFR, EGFR^L858R or EGFR^L858R/T790M; host or cells: NCI-H3255
Method: (§1) NCI-H3255 cells were obtained from the NCI (#CVCL_6831). Cells were maintained in a humidified incubator at 37° C. and 5% CO2. […] Verification of cell line identities and absence of cross-contaminations by other cell lines was performed through Short Tandem Repeats-PCR analysis (only human cell lines) and MALDI-TOF analysis. […] All cell lines were used for no more than 20 passages after thawing for all described experiments.
Control wells with medium only were also prepared. […] Plates were incubated at 37° C. for 4 hours. […] The cells were eventually lysed in HTRF lysis buffer provided by the kit (see below) and stored at −80° C. until further use. HTRF assay for pEGFR (CisBio #64EG1PEH) or pERK (CisBio #64AERPEH) was then performed according to the manufacturer's instructions.

[1] = target: T2, EGFR kinase domain (L858R) (Homo sapiens, UniProt P00533, L858R); test: Binding kinetics measured by stopped-flow fluorescence
T2 construct: osimertinib reacts faster with the EGFR kinase domain (L858R)
Source text: FIG. 3 (A) Binding kinetics measured by stopped-flow fluorescence. […].

[2] = In vitro metabolic stability, intrinsic clearance in hepatocytes; assay type: in vitro ADME; settings: primary pooled cryopreserved hepatocytes in suspension
Method: The in vitro metabolic stability was assessed in human and […] short-term hepatocytes suspensions. Primary pooled cryopreserved hepatocytes obtained from BioIVT (Westbury, NY, USA) were thawed and suspended in William's E medium supplemented with 10% fetal bovine serum. The suspended hepatocytes were pre-incubated at 37° C. (5% CO2) and reactions were initiated by adding the compound. Final assay conditions were 1 μM compound (final assay solvent concentration 0.01% DMSO), 1×10^6 hepatocytes/mL incubate. The mixtures were then incubated up to 2 hours at 37° C.′ (5% CO2). The reactions were stopped by placing samples on dry ice before storage at −80° C. until analysis by LC-MS/MS. The natural logarithm of the percentage initial drug concentration in the incubation samples was plotted against time and a linear regression analysis was applied using GraphPad Prism version 7.04 for Windows (GraphPad Software, La Jolla, CA) to define the slope. The in vitro hepatocyte intrinsic hepatocyte clearance rate (CLint) was calculated from the slope of the linear regression,-slope, with V representing the volume of the incubation in μL and N as the number of hepatocytes per incubation as detailed in Equation X: […]

EGFR^L858R/T790M = target: T3, EGFR^L858R/T790M (Homo sapiens, UniProt P00533, L858R/T790M); test: HTRF cellular assay in human cancer cells H1975; assay type: cell-based; settings: read-out: IC50 H1975 EGFR LRTM
T3 construct: expressing WT EGFR, EGFR^L858R or EGFR^L858R/T790M; host or cells: NCI-H1975

EGFR WT [3] = target: T4, EGFR WT (Homo sapiens, UniProt P00533); test: HTRF cellular assay in human cancer cells H2073; assay type: cell-based; design: expressing WT EGFR; host or cells: NCI-H2073; settings: EGF 25 ng/ml
[4] = tested on: Ba/F3 EGFR^L858R/C797S allograft; test: In vivo efficacy, Ba/F3 EGFR^L858R/C797S allograft; design: species or system mice; settings: Example 6 at 10 mpk, Example 3 at 30 mpk, BID po
[5] = target: Ba/F3 cell lines stably expressing EGFR^L858R/C797S (Homo sapiens, UniProt P00533, C797S/L858R, cells depend on it); test: Cell viability assay (cell titer glo); assay type: cell-based; settings: 72 hours, first value of IC50/IC90
EGFR WT [6] = target: T4, EGFR WT; test: HTRF cellular assay in human cancer cells A431; assay type: cell-based; design: expressing WT EGFR, EGFR^L858R or EGFR^L858R/T790M; #CRL-1555 (A431); host or cells: NCI-H2073; A431; settings: EGF 25 ng/ml
[7] = tested on: NCI-H1975 NSCLC-derived tumors (EGFR^L858R/T790M xenograft); test: In vivo efficacy, NCI-H1975 xenograft; settings: alone and in combination with osimertinib, mice
[8] = target: Ba/F3 cell lines stably expressing EGFR^L858R/T790M/C797S (Homo sapiens, UniProt P00533, T790M/C797S/L858R, cells depend on it); test: Cell viability assay (cell titer glo); assay type: cell-based
Method: as §1
Plates were incubated for 72 hours at 37° C. After treatment with compounds, 25 μl/well CellTiter-Glo 2.0 reagent (Promega #G9243) were added and plates were incubated for 10 min at RT and luminescence was quantified according to the manufacturer's protocol.

T4 sequence (P00533 25-1210): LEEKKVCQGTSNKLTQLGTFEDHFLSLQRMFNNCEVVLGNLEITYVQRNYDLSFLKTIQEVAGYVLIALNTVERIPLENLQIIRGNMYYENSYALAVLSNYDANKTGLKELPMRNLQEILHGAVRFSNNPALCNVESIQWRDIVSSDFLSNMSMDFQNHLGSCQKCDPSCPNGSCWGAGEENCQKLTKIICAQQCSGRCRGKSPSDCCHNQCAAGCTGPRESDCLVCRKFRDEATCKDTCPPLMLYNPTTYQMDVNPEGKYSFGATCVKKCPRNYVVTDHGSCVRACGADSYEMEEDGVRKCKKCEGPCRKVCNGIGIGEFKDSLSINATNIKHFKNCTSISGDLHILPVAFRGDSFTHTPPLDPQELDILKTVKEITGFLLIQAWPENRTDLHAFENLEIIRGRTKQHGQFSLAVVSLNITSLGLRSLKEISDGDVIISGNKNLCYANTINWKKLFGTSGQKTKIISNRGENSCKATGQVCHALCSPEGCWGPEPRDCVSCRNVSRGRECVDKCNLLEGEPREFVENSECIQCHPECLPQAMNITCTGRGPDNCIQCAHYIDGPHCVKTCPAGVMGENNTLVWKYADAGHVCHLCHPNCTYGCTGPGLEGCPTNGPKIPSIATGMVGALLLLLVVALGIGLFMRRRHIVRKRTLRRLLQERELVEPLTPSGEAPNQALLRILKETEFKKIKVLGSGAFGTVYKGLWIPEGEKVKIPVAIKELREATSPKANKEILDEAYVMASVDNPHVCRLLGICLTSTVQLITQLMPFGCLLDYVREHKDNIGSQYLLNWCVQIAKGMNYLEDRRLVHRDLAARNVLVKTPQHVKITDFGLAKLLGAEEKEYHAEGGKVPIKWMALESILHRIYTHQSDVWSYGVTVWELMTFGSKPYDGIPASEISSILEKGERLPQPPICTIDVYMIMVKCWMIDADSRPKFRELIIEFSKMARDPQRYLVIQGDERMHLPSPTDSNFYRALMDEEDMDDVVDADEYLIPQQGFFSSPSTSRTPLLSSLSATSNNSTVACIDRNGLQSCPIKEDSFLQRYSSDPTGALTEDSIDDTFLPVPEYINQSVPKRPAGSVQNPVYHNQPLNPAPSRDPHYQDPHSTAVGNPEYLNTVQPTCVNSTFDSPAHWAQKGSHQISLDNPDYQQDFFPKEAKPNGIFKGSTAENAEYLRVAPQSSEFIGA
Sequence of Ba/F3 cell lines stably expressing EGFR^L858R/T790M/C797S (P00533 whole entry T790M/C797S/L858R): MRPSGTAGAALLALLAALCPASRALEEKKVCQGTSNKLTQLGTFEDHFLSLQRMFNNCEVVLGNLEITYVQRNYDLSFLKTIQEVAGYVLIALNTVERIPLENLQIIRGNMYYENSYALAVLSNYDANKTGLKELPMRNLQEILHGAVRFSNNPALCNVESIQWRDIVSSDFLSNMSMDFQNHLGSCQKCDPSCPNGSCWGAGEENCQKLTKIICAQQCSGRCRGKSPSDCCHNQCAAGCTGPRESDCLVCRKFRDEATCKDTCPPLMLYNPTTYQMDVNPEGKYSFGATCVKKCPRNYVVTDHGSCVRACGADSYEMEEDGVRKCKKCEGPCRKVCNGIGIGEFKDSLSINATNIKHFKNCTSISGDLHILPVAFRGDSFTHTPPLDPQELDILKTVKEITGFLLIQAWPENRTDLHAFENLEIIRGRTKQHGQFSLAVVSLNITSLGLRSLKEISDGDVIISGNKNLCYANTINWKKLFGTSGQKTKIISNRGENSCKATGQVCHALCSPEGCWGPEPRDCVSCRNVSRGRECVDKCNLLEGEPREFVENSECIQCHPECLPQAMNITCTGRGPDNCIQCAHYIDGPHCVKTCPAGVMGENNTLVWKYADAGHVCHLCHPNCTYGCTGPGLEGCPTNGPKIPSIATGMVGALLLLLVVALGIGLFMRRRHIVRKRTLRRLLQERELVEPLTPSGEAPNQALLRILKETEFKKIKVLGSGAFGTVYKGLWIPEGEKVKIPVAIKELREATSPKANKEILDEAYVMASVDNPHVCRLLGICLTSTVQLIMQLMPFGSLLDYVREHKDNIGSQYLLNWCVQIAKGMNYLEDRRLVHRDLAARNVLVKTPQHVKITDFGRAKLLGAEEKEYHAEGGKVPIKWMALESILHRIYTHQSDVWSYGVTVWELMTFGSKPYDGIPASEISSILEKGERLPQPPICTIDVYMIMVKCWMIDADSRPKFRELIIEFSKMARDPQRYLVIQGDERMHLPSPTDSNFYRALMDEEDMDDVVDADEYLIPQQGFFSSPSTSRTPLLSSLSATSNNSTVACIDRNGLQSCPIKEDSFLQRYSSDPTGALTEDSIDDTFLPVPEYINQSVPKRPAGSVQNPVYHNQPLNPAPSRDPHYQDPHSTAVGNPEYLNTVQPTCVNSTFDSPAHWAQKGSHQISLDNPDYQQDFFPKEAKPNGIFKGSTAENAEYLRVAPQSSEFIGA
T3 sequence (P00533 25-1210 T790M/L858R): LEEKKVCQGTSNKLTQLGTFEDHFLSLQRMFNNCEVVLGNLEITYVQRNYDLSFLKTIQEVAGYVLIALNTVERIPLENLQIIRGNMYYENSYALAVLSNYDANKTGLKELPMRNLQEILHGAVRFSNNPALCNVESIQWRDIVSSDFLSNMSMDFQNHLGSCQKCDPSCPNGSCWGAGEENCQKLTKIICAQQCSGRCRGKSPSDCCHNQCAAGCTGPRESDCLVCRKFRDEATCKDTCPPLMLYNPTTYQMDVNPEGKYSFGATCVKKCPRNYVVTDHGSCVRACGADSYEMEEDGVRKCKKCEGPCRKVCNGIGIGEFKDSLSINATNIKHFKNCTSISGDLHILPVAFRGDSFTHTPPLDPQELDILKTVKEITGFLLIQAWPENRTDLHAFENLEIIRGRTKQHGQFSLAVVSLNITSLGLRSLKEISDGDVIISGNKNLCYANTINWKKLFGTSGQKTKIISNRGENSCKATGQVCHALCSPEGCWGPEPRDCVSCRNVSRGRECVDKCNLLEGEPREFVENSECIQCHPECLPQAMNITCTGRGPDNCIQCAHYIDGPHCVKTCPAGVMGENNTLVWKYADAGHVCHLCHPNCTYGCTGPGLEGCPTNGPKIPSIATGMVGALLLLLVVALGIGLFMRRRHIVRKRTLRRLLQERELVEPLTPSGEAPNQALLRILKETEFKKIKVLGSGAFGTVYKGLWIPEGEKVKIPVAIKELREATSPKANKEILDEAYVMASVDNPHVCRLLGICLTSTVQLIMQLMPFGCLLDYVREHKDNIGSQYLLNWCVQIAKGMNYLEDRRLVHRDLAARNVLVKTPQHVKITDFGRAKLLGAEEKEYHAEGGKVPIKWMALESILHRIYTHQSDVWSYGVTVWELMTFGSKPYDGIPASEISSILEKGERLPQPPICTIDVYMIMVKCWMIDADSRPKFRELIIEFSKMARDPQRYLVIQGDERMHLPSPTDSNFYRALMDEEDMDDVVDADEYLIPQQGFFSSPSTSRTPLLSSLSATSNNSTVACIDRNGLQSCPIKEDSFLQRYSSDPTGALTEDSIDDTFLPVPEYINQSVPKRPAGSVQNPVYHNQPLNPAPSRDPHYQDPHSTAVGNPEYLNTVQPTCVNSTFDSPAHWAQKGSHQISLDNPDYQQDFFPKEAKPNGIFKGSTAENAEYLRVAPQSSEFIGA
T1 sequence (P00533 25-1210 L858R): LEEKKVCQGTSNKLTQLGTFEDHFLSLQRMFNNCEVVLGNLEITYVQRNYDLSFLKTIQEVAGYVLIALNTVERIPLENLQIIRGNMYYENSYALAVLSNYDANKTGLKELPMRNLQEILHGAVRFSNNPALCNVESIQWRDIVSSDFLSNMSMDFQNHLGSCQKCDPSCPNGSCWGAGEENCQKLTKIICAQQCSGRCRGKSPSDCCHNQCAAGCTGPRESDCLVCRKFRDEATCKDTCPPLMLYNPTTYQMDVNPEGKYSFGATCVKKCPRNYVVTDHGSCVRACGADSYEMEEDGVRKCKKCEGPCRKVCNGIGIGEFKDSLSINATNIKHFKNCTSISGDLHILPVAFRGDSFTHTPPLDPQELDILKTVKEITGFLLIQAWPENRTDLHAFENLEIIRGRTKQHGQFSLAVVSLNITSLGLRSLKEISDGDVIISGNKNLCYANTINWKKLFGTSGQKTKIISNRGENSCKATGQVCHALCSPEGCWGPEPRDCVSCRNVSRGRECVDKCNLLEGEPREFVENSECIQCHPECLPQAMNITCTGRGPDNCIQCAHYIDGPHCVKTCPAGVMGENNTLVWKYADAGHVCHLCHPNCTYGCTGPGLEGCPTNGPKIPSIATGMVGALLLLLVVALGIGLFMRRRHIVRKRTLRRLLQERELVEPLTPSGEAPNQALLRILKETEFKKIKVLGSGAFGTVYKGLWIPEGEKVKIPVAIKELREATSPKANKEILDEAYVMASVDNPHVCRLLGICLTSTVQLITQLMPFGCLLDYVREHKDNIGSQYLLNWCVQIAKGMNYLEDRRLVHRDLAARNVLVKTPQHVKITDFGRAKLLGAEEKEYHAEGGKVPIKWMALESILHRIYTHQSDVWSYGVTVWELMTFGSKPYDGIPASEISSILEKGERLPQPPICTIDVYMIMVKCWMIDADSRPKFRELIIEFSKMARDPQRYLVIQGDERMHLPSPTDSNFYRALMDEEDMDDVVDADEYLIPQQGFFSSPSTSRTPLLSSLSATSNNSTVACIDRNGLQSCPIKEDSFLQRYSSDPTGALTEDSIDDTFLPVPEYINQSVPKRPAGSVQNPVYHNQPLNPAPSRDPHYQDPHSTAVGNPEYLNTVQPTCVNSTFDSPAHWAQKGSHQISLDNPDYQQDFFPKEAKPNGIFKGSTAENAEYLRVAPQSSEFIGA
T2 sequence (P00533 712-979 L858R limits assumed): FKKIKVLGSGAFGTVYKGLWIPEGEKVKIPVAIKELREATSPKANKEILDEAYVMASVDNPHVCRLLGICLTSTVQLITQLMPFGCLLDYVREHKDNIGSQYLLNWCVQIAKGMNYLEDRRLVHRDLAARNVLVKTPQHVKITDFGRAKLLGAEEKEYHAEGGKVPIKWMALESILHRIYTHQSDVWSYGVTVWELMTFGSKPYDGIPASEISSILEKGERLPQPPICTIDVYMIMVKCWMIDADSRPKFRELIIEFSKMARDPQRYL

SMILES: O=C(Nc1nccs1)C(c1ncn2c1CCC2)n1cc2c(F)cc(C#Cc3ccc(CN4CCC(O)CC4)cc3)cc2n1 (stereo not shown) [Example 4, 2-(6,7-Dihydro-5H-pyrrolo[1,2-c]imidazol-1-yl)-2-(4-fluoro-6-((4-((4-hydroxypiperidin-1-yl)methyl)phenyl)ethynyl)-2H-indazol-2-yl)-N-(thiazol-2-yl)acetamide]
GI50 [5]: 800 nM

SMILES: Cc1c(C#Cc2ccc(CN3CCC(CO)CC3)cc2)cc(C(F)F)c2cn(C(C(=O)Nc3nccs3)c3ncn4c3CCC43CC3)nc12 (stereo not shown) [Example 6]
IC50 (EGFR^L858R): 16 nM
hepatocyte CLint at 1 μM ([2]; human): 1 µL/min/1e6 cells
hepatocyte CLint at 1 μM ([2]; mouse): 25 µL/min/1e6 cells
IC50 (EGFR WT [6]): 577 nM
changes in body weight [4]: No significant changes in body weight
changes in body weight [7]: No significant changes in body weight
IC50 (EGFR^L858R/T790M): 8 nM
IC50 (EGFR WT [3]): 545 nM

SMILES: O=C(Nc1nccs1)C(c1cc(F)ccc1O)N1Cc2ccc(-c3ccc(N4CCNCC4)cc3)cc2C1=O (stereo not shown) [JBJ-04-125-02, reference compound]
GI50 ([8]; 72 hours, first value of IC50/IC90): 30 nM
IC90 ([8]; read-out: Viability IC90 L858R/T790M/C797S, 72 hours, second value of IC50/IC90): 40 nM

The next lines start with results.

IC50 (EGFR^L858R): 16 nM
increase of the residence time of osimertinib ([1]; global fitting of the kinetic data, osimertinib in presence of the allosteric inhibitor): around 120 fold
reaction of osimertinib with the EGFR kinase domain (L858R) in presence of the allosteric inhibitor ([1]; stopped-flow fluorescence): reacts faster
hepatocyte CLint at 1 μM ([2]; human): 3.5 µL/min/1e6 cells
hepatocyte CLint at 1 μM ([2]; mouse): 16 µL/min/1e6 cells
IC50 (EGFR^L858R/T790M): 7 nM
IC50 (EGFR WT [3]): ~2000 nM
SMILES: O=C(Nc1nccs1)C(c1ncn2c1C[C@@H](F)C2)n1cc2c(Cl)cc(-c3ccc(N4CCOCC4)cc3)c(Cl)c2n1 (stereo partly drawn) [Example 1, 2-[4,7-Dichloro-6-(4-morpholinophenyl)indazol-2-yl]-2-[(6R)-6-fluoro-6,7-dihydro-5H-pyrrolo[1,2-c]imidazol-1-yl]-N-thiazol-2-yl-acetamide]

hepatocyte CLint at 1 μM ([2]; human): 6.1 µL/min/1e6 cells
hepatocyte CLint at 1 μM ([2]; mouse): 21 µL/min/1e6 cells
SMILES: Cc1c(-c2ccc(N3CCOCC3)cc2)cc(C(F)F)c2cn(C(C(=O)Nc3nccs3)c3ncn4c3C[C@@H](F)C4)nc12 (stereo partly drawn) [Example 2, 2-[4-(Difluoromethyl)-7-methyl-6-(4-morpholinophenyl)indazol-2-yl]-2-[(6R)-6-fluoro-6,7-dihydro-5H-pyrrolo[1,2-c]imidazol-1-yl]-N-thiazol-2-yl-acetamide]

hepatocyte CLint at 1 μM ([2]; human): 5.9 µL/min/1e6 cells
hepatocyte CLint at 1 μM ([2]; mouse): 25 µL/min/1e6 cells
SMILES: Cc1c(-c2ccc(N3CCOCC3)cc2)cc(C(F)F)c2cn(C(C(=O)Nc3nccs3)c3ncn4c3CCC43CC3)nc12 (stereo not shown) [Example 3, 2-[4-(Difluoromethyl)-7-methyl-6-(4-morpholinophenyl)indazol-2-yl]-2-spiro[6,7-dihydropyrrol[1,2-c]imidazole-5,1′-cyclopropane]-1-yl-N-thiazol-2-yl-acetamide]
changes in body weight [4]: No significant changes in body weight

hepatocyte CLint at 1 μM ([2]; human): 2.4 µL/min/1e6 cells
hepatocyte CLint at 1 μM ([2]; mouse): 36 µL/min/1e6 cells
SMILES: Cc1c(C#Cc2ccc(CN3CCC(CO)CC3)cc2)cc(C(F)F)c2cn(C(C(=O)Nc3nccs3)c3ncn4c3CCC4)nc12 (stereo not shown) [Example 5, 2-[4-(Difluoromethyl)-6-[2-[4-[[4-(hydroxymethyl)-1-piperidyl]methyl]phenyl]ethynyl]-7-methyl-indazol-2-yl]-2-(6,7-dihydro-5H-pyrrolo[1,2-c]imidazol-1-yl)-N-thiazol-2-yl-acetamide]

Reference: patent US20260007678A1, “COMBINATION OF ALLOSTERIC AND ORTHOSTERIC EGFR INHIBITORS FOR THE TREATMENT OF CANCER” (Hoffmann-La Roche Inc., priority 2022, published 2026)
